Results as given in article PMC9804224, “Statin activation of skeletal ryanodine receptors (RyR1) is a class effect but separable from HMG‐CoA reductase inhibition” (British Journal of Pharmacology, 2022).
pEC50: −log10 of the molar value.

How the values were obtained:
Format in all cases: biochemical
[1] = target: T1, skeletal ryanodine receptor (RyR1) (Ovis aries, UniProt A0ACI6NWU0); assay: single-channel recording in planar lipid bilayers (activation); also [3H]ryanodine binding EC50 […]; set-up: native RyR1 channels from skeletal muscle heavy SR vesicles
[2] = target: T1, skeletal ryanodine receptor (RyR1); assay: as above; set-up: native RyR1 channels from skeletal muscle heavy SR vesicles; remark: listed apart in the source
[3] = target: T1, skeletal ryanodine receptor (RyR1); assay: increase of [3H]ryanodine binding to SR membrane vesicles (channel activation); set-up: native RyR1 in skeletal muscle SR membrane vesicles

CC(C)c1c(C(=O)Nc2ccccc2)c(-c2ccccc2)c(-c2ccc(F)cc2)n1CC[C@@H](O)C[C@@H](O)CC(=O)O [atorvastatin]
pEC50 [1]: 7.54

COCc1c(C(C)C)nc(C(C)C)c(/C=C/[C@@H](O)C[C@@H](O)CC(=O)O)c1-c1ccc(F)cc1 [cerivastatin]
pEC50 [2]: 6.89

CC(C)c1nc(N(C)S(C)(=O)=O)nc(-c2ccc(F)cc2)c1/C=C/[C@@H](O)C[C@@H](O)CC(=O)O [rosuvastatin]
pEC50 ([3]; read-out: EC50): 6.31

CC[C@H](C)C(=O)O[C@H]1C[C@H](O)C=C2C=C[C@H](C)[C@H](CC[C@@H](O)C[C@@H](O)CC(=O)O)[C@H]21 [pravastatin]
pEC50 [3]: 6.36
